Patent US20020086281A1, “Detection of neurodegenerative diseases, in vitro screening assays” (priority 1998, published 2002)

What was measured:
control cells = assay: Microphysiometry of control cells, ionomycin response after rotenone; assay type: cell-based, human; conditions: control cells exposed to rotenone; FIG. 3
From the text: The rate at which cells excrete protons (the acidification rate) is closely linked to the rate at which they convert nutrients to energy. Because energy metabolism is coupled to ATP consumption, any event that perturbs ATP levels, such as receptor activation or calcium influx, causes a change in energy metabolism and, therefore, an alteration in proton excretion. In addition, receptor activation may also directly affect proton excretion by altering Na/H exchange. A typical microphysiometer, such as the Cytosensor™ (Molecular Devices), uses a silicon-based sensor to measure the rate of proton excretion from 10^4-10^6 cells. […] Flow of medium (with low buffering capacity) and test compounds are determined by a series of microprocessor-controlled pumps. The extracellular acidification rate is determined by measuring the decrease in pH that occurs as acidic metabolites accumulate during brief halts in the flow of medium. The degree of stimulation of the basal acidification is calculated and plotted as a per cent of the basal acidification rate. […]
(§1) Lymphoblasts are suspended in agarose entrapment solution at a density of 5×10^5 cells/10 μl, then are plated onto chamber inserts, and allowed to solidify for 20 minutes. […] The rate of acidification is calculated as the slope of a linear least squares fit to the relation of pH versus time during the pump's off period. […]

[1] = test system: LHON 3460 mutation lymphoblasts; assay: Microphysiometry of LHON cells, 3460 mutation; assay type: cell-based, human; conditions: LHON 3460 mutation cells compared with control; FIG. 4A-4E
From the text: (§2) The rate at which cells excrete protons (the acidification rate) is closely linked to the rate at which they convert nutrients to energy. Because energy metabolism is coupled to ATP consumption, any event that perturbs ATP levels, such as receptor activation or calcium influx, causes a change in energy metabolism and, therefore, an alteration in proton excretion. In addition, receptor activation may also directly affect proton excretion by altering Na/H exchange. A typical microphysiometer, such as the Cytosensor™ (Molecular Devices), uses a silicon-based sensor to measure the rate of proton excretion from 10^4-10^6 cells. Cells are contained in a 3 μL flow chamber in aqueous contact with the pH-sensitive surface of a light-sensitive potentiometric sensor. Flow of medium (with low buffering capacity) and test compounds are determined by a series of microprocessor-controlled pumps. The extracellular acidification rate is determined by measuring the decrease in pH that occurs as acidic metabolites accumulate during brief halts in the flow of medium. The degree of stimulation of the basal acidification is calculated and plotted as a per cent of the basal acidification rate. The sensor takes a voltage measurement that is linearly related to pH. Typically, during a 30-60 sec halt in flow, pH will decrease less than 0.1 pH unit. Reproducible and robust responses are obtained to metabolic inhibitors, growth factors and ionophores in lymphoblast lines. Because virtually any manipulation alters proton excretion, it is relatively easy to determine the types of stimuli to which disease cell lines respond abnormally.
(§3) LHON: Previous work at Emory University has identified causative mitochondrial DNA mutations in LHON patients. Well-characterized LHON patient cell lines have been generated and banked. These cell lines have been characterized by molecular genetic, cellular respiration and enzymology studies. The patient cell lines were obtained from the Emory University Clinical Research Center (Emory University, Atlanta, Ga.).
(§4) Patient lymphocytes are immortalized using the technique of Neitzel H, Human Genetics 73:320-326 (1986). In brief, the lymphocytes are removed from the buffy coat layer following Histopaque density separation. […]
as §1

[2] = test system: LHON 14459 mutation lymphoblasts; assay: Microphysiometry of LHON cells, 14459 mutation; assay type: cell-based, human; conditions: LHON 14459 mutation cells compared with control; FIG. 4A-4E
From the text: as §2, §3, §4, §1

PD lymphoblasts = assay: Microphysiometry of PD lymphoblasts; assay type: cell-based, human; conditions: PD lymphoblasts compared with controls; FIG. 5A-5D
From the text: as §2, with “abnormally. […]” for “abnormally.”
as §1

sporadic AD lymphoblasts = assay: Microphysiometry (acidification rate) of sporadic AD lymphoblasts; assay type: cell-based, human; conditions: sporadic AD lymphoblasts compared with controls; FIG. 1A-1D
From the text: as §2, with “Because virtually any manipulation alters proton excretion, it is relatively easy to determine the types of stimuli to which disease cell lines respond abnormally.” left out
Alzheimer's disease: Lymphoblast cell lines were generated from blood samples obtained from patients followed in the Emory Alzheimer's Disease Center. All patients have been evaluated by detailed neurological and neuropsychometric examinations. […]
as §1

[3] = test system: PC12 cells transfected with two mutant forms of PS1; assay type: cell-based, Rat; conditions: PC12 cells transfected with mutant presenilin-1; FIG. 2A-2D
From the text: as §2
Rat adrenal pheochromocytoma PC 12 cells were stably transfected with PS1 cDNA cloned behind the CMV promoter in pcDNA3. See, e.g., Lah, J. J. et al., J. Neurosci. […]
as §1

HD fibroblasts = assay: Microphysiometry of HD cells; assay type: cell-based, human; conditions: HD cells compared with control cells; FIG. 3

With `C=C(C)[C@H]1Cc2c(ccc3c2O[C@@H]2COc4cc(OC)c(OC)cc4[C@@H]2C3=O)O1` [rotenone] the “reproduction of the HD-type altered response to ionomycin” value (control cells) was “can be reproduced in control cells”, the “microphysiometric response to the inhibitor or ionophore” value [1] was “virtually absent” and the “microphysiometric response to the inhibitor or ionophore” value [2] was “markedly depressed”. The “microphysiometric response to the inhibitor” value (PD lymphoblasts) was “markedly blunted”, the “microphysiometric response (stimulation of acidification rate) to the inhibitor” value (sporadic AD lymphoblasts) was “markedly blunted” and the “microphysiometric response to the inhibitor” value [3] was “similarly depressed response”.
For `O=C(O)CC(=O)O` [malonate], the “microphysiometric response to the inhibitor” value (PD lymphoblasts) was “do not differ substantially from controls”, the “microphysiometric response (stimulation of acidification rate) to the inhibitor” value (sporadic AD lymphoblasts) was “do not differ substantially from controls” and the “microphysiometric response to the inhibitor” value [3] was “normal response”.
antimycin-A was tested, and the “microphysiometric response to the inhibitor or ionophore” value [1] was “markedly depressed”, the “microphysiometric response to the inhibitor or ionophore” value [2] was “markedly depressed” and the “microphysiometric response to the inhibitor” value (PD lymphoblasts) was “do not differ substantially from controls”. The “microphysiometric response (stimulation of acidification rate) to the inhibitor” value (sporadic AD lymphoblasts) was “markedly blunted”.
`CN(C)C(=O)Nc1ccc(Cl)c(Cl)c1` [diuron] was tested, and the “microphysiometric response to the inhibitor” value [3] was “similarly depressed response”.
In the case of `C[C@H](CCC(=O)O)C[C@H](C)C[C@H](C)C(=O)/C=C(\O)[C@H](C)C[C@H](C)C/C=C/[C@@H](C)[C@@H](O)[C@@H](C)[C@@H](O)C[C@@H]1CC[C@@](C)([C@H]2CC[C@@](C)([C@@H](C)O)O2)O1` [ionomycin], the “microphysiometric response to the inhibitor or ionophore” value [1] is reported as “abnormal”, the “microphysiometric response to the inhibitor or ionophore” value [2] is reported as “abnormal” and the “microphysiometric response to the calcium ionophore” value (HD fibroblasts) is reported as “abnormal responses”.
For `O=C(CC(=O)C(F)(F)F)c1cccs1` [TTFA, Thenoyltrifluoroacetone], the “microphysiometric response to the inhibitor or ionophore” value [1] was “no difference between control and patient lymphoblast responses” and the “microphysiometric response to the inhibitor or ionophore” value [2] was “no difference between control and patient lymphoblast responses”.
